According to US5342970A, “Hydrosoluble coumarin derivatives, their preparation and their use as an enzyme substrate or for the preparation of such substrates” (priority 1991, dated 1994):
Where “and” joins values, the source holds several entries; their conditions need not be identical. Equal values may be shown once. Where a name gives a salt, the structure may show the parent alone. Read-outs that look alike come from different tables or passages of the source. Blank lines part the entries; values can stand above or below the molecule they belong to.

Experiments:
[1] = Ratio of fluorescence intensities of hydrolysis product and substrate; type: physicochemical; conditions: equimolar concentration, at the measurement wavelength
[2] = Solubility in water and in water-ethanol mixtures; type: physicochemical; conditions: water; read-out: Solubility in water
[3] = Excitation and emission spectra of substrates and hydrolysis products (Table 1); type: physicochemical
[4] = tested on: Leucine aminopeptidase; assay: Enzymatic hydrolysis of substrate by leucine aminopeptidase, Michaelis kinetics; type: biochemical
Description: As a result of the possible presence in the substrate Leu ATC (compound 13) of a trace of ATC, i.e. 7-amino-4-(2',5',8'-trioxanonyl)-coumarin, which is the hydrolysis product, use was made of a kinetic method for determining the enzymatic activity of leucine aminopeptidase, i.e. the signal is constituted by the fluorescence intensity difference at 2 minutes and 12 minutes. In this way it is possible to eliminate the interference of the ATC present prior to hydrolysis.
The initial speed of the reaction was studied for a concentration of the substrate constituted by compound 13 (Leu-ATC) between 2×10^-5 mole/l and […] using the following reagents:
Crystalline Leu-ATC hydrochloride of example 13: aqueous solutions 4×10^-5 to 4×10^-3 mole/l,
Leucine aminopeptidase (Sigma, ref N5006): aqueous solution at 7.53 μg/ml in 0.2M Tris buffer, pH7.8,
Tris buffer: solution A: 0.2M Tris, i.e. 24.23 g/l, solution B: 0.1M HCl.
This buffer is prepared by mixing 25 ml of solution A and 33.7 ml of solution B and by topping up to 100 ml with water. The pH must be 7.8.
1.17N perchloric acid solution (1/10 dilution of the pure acid).
For this determination, preparation firstly takes place in tubes of the following range of substrate concentrations (compound 13, Leu-ATC): 0-2-4-10-20-50-100-200×10^-5 M (final concentration).
To each tube is added a concentration of 1.51 μg/ml of Leucine aminopeptidase, everything being dissolved in the Tris buffer at pH 7.8, preheated to 37° C., whilst the tubes are in a water bath thermostatically controlled to 37° C. After 2 min, 250 μl are removed from each tube and poured into tubes containing 250 μl of perchloric solution and 750 μl of water. The same operation is repeated after 6 min. All the tubes are diluted to 1/1000. The intensity of the fluorescence IF is measured at 370/480 nm. The difference of the intensities at 6 and 2 min: […] constitutes the signal.
The corresponding ATC concentration is calculated relative to a calibration range between 10^-9 and 10^-8 M. The results are given in the following table 2:
The speed constant kcat is calculated by the ratio Vm/Ez, in which Vm is the maximum speed in μmole/s/mg/Ez and Ez is the enzyme quantity in 1 mg, expressed in μmole. The molar mass of Leucine aminopeptidase is 300000.
This curve has a hyperbolic behaviour characteristic of a Michaelis kinetics. The experimental points were adjusted to the corresponding equation by non-linear regression (Graphpad software) and made it possible to determine the affinity constant Km, the maximum speed Vm and the speed constant kcat (ratio of the maximum speed to the enzyme concentration).

[5] = tested on: Leucine aminopeptidase; assay: Determination of leucine aminopeptidase, analytical characteristics of the reaction; type: biochemical
Description: The reaction conditions were determined following the preceding stage. The Leu-ATC substrate concentration was chosen to give a maximum speed (1 mM). The reaction time was made 12 minutes by measuring the difference of the fluorescence intensities at 12 and 2 minutes. In order to evaluate the quantification limit, measure the repeatability and test the linearity, […] were prepared containing concentrations of 0-0.05-0.10-0.25-0.50-1 μg/ml using the same reagents as previously and giving the following range:
In order to carry out the evaluation, a series of tubes was prepared containing 750 μl of water+250 μl of 1.17N perchloric solution and at time 2 min, transfer thereto took place of 250 μl of each sample of the enzyme range. The same took place at time 12 min. This was followed by the dilution of all the tubes to 1/200 in water and the reading of the fluorescence (370/480 nm) with a gain of 2 on the Perkin Elmer LS3B fluorimeter.
The results obtained are given in FIG. 25, with which is the mean calibration curve illustrating the variation of the fluorescence intensity as a function of the enzyme concentration (μg/ml). This calibration curve was determined by linear regression. The mean standard deviation is 153±7.36 for the gradient and -3.10±1.16 for the intercept.
The quantification limit, calculated by the ratio […], is 0.02 μg/ml.
The repeatability, evaluated by the variation coefficient, is 17% at 0.05 μg/ml, 8% at 0.25 μg/ml and 4% at 1 μg/ml.

[6] = Excitation and emission spectra of ATC derivatives (Table 4); type: physicochemical; conditions: 10^-7 M; Z-Arg-ATC in 50 mM Tris pH 8, 10 mM CaCl2
Description: The excitation and emission spectra of ATC and Z-Arg-ATC were plotted on the basis of 10^-7 M solutions in the 50 mM Tris buffer at pH 8 containing 10 mM of CaCl2. The maxima obtained are indicated in table 4 with the corresponding maxima of Leu-ATC.

[7] = tested on: Leucine aminopeptidase; conditions: known substrates, for comparison; medium with organic solvent; cited from earlier work
[8] = tested on: Leucine aminopeptidase; conditions: comparison substrate Leu-AMC; cited from earlier work
[9] = substrate: COCCOCCOCc1cc(=O)oc2cc(NC(=O)[C@H](CCCNC(=N)N)NC(=O)OCc3ccccc3)ccc12; assay: Hydrolysis of substrate by trypsin, Michaelis kinetics; type: biochemical, pig; conditions: other: Tris buffer pH 8.0 + CaCl2 10 mM, ambient temperature
Description: Crystalline Z-Arg-ATC hydrochloride (Seratec): 10^-3 M solution in Tris buffer, pH 8.0+CACl2, 10 mM.
Pig pancreas trypsin (SIGMA T0134): 10^-3 M solution in Tris buffer, pH 8.0+CACl2, 10 mM.
Tris buffer: solution A: 0.2M Tris, i.e. 24.23 g/l+CaCl2, 40 mM, i.e. 5.88 g/l; solution B: 0.1M HCl.
This buffer is prepared by mixing 250 ml of solution A with 268 ml of solution B and by topping up to 1 liter with water.
Acetate buffer: solution A: 0.02M acetic acid; solution B: 0.02M sodium acetate.
This buffer is prepared by mixing volume by volume solutions A and B to obtain a buffer at pH 4.75.
Aqueous 1.17N perchloric acid solution (1/10 dilution of pure acid).
The following substrate concentration range was prepared in tubes: 0-0.2-0.5-1-2-5-10×10^-4 M (final concentration).
To each tube was added a concentration of 6.67 μg/ml of trypsin, everything being dissolved in the Tris buffer pH 8.0+CaCl2, 10 mM and at ambient temperature. The enzyme is added at time 0. After 2 minutes, 250 μl are removed from each tube and poured into tubes containing 250 μl of 1.17N perchloric acid and 500 μl of water. The tubes are centrifuged and then the solution is diluted to 1/250 in the acetate buffer. The same operation is repeated at 17 min. The fluorescence intensity is measured at 380/490nm. The difference of the intensities at 17 and 2 min constitutes the signal.
The corresponding ATC concentration is calculated compared with a calibration range from 5×10^-9 to 2×10^-7 M.
This was followed by the determination of Km, Vm, kcat and the ratio kcat/Km. The results obtained are given in table 6, which also gives for comparison purposes the values obtained with Z-L-Arg-AMC and Bz DL Arg-AMC and Bz -L-Arg-AMC.

[10] = Tris buffer pH 7.8, 37° C., no organic solvent
[11] = words, vs Leu AMC and Leu-βnaphthylamide
[12] = fluorescence intensity vs enzyme concentration (μg/ml), linear regression

Molecule: Nc1ccc2c(CS(=O)(=O)O)cc(=O)oc2c1 [AMCS, 7-amino-4-coumarinyl-methane sulphonic acid, reference compound]
ratio of the fluorescence intensities of the hydrolysis product and the substrate [1]: ~250

Molecule: COCCOCCOCc1cc(=O)oc2cc(N)ccc12 [Compound 4, 7-amino-4-(2',5',8'-trioxanonyl)coumarin]
solubility [2]: 400 µg/mL and 1330 µM
Maximum excitation wavelength, hydrolysis product ([3]; 10^-7 M in Tris buffer, pH 7.8): 350 nm
Maximum fluorescence wavelength, hydrolysis product ([3]; 10^-7 M in Tris buffer, pH 7.8): 465 nm
ratio of the fluorescence intensities of the hydrolysis product and the substrate [1]: approximately 400

B1: Pig pancreas trypsin (Sus scrofa) (protein)
chain: IVGGYTCAANSIPYQVSLNSGSHFCGGSLINSQWVVSAAHCYKSRIQVRLGEHNIDVLEGNEQFINAAKIITHPNFNGNTLDNDIMLIKLSSPATLNSRVATVSLPRSCAAAGTECLISGWGNTKSSGSSYPSLLQCLKAPVLSDSSCKSSYPGQITGNMICVGFLEGGKDSCQGDSGGPVVCNGQLQGIVSWGYGCAQKNKPGVYTKVCNYVNWIQQTIAAN
Km [9]: 195 µM
Vmax [9]: 3.16 µM/min
kcat/Km [9]: 975 M⁻¹ s⁻¹

The next lines start with results.

Maximum excitation wavelength, substrate ([3]; 10^-7 M in Tris buffer, pH 7.8): 330 nm
Maximum fluorescence wavelength, substrate ([3]; 10^-7 M in Tris buffer, pH 7.8): 405 nm
Stokes displacement compared with AMC and AMCS derivatives ([3]; words): greater
ATC concentration in hydrolysis solution ([4]; Leu-ATC 2×10^-5 M): 1.7 µM/min
ATC concentration in working solution ([4]; Leu-ATC 2×10^-5 M): 1.38 nM
IF(6)-IF(2) ([4]; Leu-ATC 2×10^-5 M): 5.5
ATC concentration in hydrolysis solution ([4]; Leu-ATC 4×10^-5 M): 3.6 µM/min
ATC concentration in working solution ([4]; Leu-ATC 4×10^-5 M): 2.88 nM
IF(6)-IF(2) ([4]; Leu-ATC 4×10^-5 M): 11.5
ATC concentration in hydrolysis solution ([4]; Leu-ATC 10×10^-5 M): 6.6 µM/min
ATC concentration in working solution ([4]; Leu-ATC 10×10^-5 M): 5.25 nM
IF(6)-IF(2) ([4]; Leu-ATC 10×10^-5 M): 21
ATC concentration in hydrolysis solution ([4]; Leu-ATC 20×10^-5 M): 12.0 µM/min
ATC concentration in working solution ([4]; Leu-ATC 20×10^-5 M): 9.63 nM
IF(6)-IF(2) ([4]; Leu-ATC 20×10^-5 M): 38.5
ATC concentration in hydrolysis solution ([4]; Leu-ATC 50×10^-5 M): 14.1 µM/min
ATC concentration in working solution ([4]; Leu-ATC 50×10^-5 M): 11.25 nM
IF(6)-IF(2) ([4]; Leu-ATC 50×10^-5 M): 45
ATC concentration in hydrolysis solution ([4]; Leu-ATC 100×10^-5 M): 14.7 µM/min
ATC concentration in working solution ([4]; Leu-ATC 100×10^-5 M): 11.75 nM
IF(6)-IF(2) ([4]; Leu-ATC 100×10^-5 M): 47
ATC concentration in hydrolysis solution ([4]; Leu-ATC 200×10^-5 M): 15.0 µM/min
ATC concentration in working solution ([4]; Leu-ATC 200×10^-5 M): 12.0 nM
IF(6)-IF(2) ([4]; Leu-ATC 200×10^-5 M): 48
Km [4, 10]: 110 µM
Vm [4, 10]: 10.3 μmole/mg Ez/min
kcat ([4]; ratio Vm/Ez, pH 7.8, 37° C.): 51.5 s⁻¹
maximum speed compared with the other substrates [4, 11]: higher
repeatability (variation coefficient) ([5]; at 0.05 μg/ml enzyme): 17%
repeatability (variation coefficient) ([5]; at 0.25 μg/ml enzyme): 8%
repeatability (variation coefficient) ([5]; at 1 μg/ml enzyme): 4%
gradient of calibration curve [5, 12]: 153±7.36
intercept of calibration curve [5, 12]: -3.10±1.16
quantification limit ([5]; leucine aminopeptidase, ratio 3 b/a, substrate 1 mM, 12 min): 0.02 µg/mL
excitation maximum, substrate [6]: 330 nm
fluorescence maximum, substrate [6]: 405 nm
Molecule: COCCOCCOCc1cc(=O)oc2cc(NC(=O)[C@@H](N)CC(C)C)ccc12 [Compound 13, L-leucine-4-(2',5',8'-trioxanonyl)-7-coumarinylamide hydrochloride]
affinity for Leucine aminopeptidase compared with the other substrates [4, 11]: better than that of the two other substrates

Maximum excitation wavelength, substrate ([3]; 10^-7 M in Tris buffer, pH 7.8): 327 nm
Maximum fluorescence wavelength, substrate ([3]; 10^-7 M in Tris buffer, pH 7.8): 390 nm
Molecule: Cc1cc(=O)oc2cc(NC(=O)[C@@H](N)CC(C)C)ccc12 [Leu AMC]
Km [7]: 160 µM
Vm [7]: 4.0 μmole/mg Ez/min
detection limit [8]: 0.03 µg/mL
